Structures can show the parent of a compound that is named as a salt. Where two headings read alike, the source gives them in different places.
Experiments:
Format in all cases: biochemical
recombinant PRL-2 = target: T1, recombinant PRL-2 (Homo sapiens, UniProt Q12974); assay: In vitro phosphatase assay (DiFMUP hydrolysis), PRL-2;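 also: PRL-2 activity read as DiFMUP hydrolysis after 20 min at room temperature with drug, enzyme first pre-reduced at 4 °C for 20 min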
T1 construct: 6xHis (N, cleaved yes); made in house; host or cells: E. coli One Shot BL21 Star
T1 sequence (Q12974 1-167): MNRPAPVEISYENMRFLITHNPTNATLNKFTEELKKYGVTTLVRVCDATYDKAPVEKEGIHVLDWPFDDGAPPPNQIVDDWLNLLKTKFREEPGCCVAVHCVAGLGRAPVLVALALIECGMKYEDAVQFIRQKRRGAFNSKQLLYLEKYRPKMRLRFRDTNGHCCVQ

recombinant PRL-3 = target: T2, recombinant PRL-3 (Homo sapiens, UniProt O75365); assay: In vitro phosphatase assay (DiFMUP hydrolysis), PRL-3; as to % Phosphatase Activity (compared to DMSO) PRL-3: test concentration or dose not given here
T2 construct: 6xHis (N, cleaved yes); made in house; host or cells: E. coli One Shot BL21 Star
T2 sequence (O75365 whole entry): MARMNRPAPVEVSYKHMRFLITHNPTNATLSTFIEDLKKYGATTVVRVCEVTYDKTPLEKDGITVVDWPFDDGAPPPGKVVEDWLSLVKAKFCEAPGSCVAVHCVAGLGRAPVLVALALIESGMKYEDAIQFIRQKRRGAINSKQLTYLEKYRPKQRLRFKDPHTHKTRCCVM

recombinant PRL-1 = target: T3, recombinant PRL-1 (Homo sapiens, UniProt Q93096); assay: In vitro phosphatase assay (DiFMUP hydrolysis), PRL-1; as to % Phosphatase Activity (compared to DMSO) PRL-1: test concentration or dose not given here
T3 construct: 6xHis (N, cleaved yes); made in house; host or cells: E. coli One Shot BL21 Star
T3 sequence (Q93096 1-173): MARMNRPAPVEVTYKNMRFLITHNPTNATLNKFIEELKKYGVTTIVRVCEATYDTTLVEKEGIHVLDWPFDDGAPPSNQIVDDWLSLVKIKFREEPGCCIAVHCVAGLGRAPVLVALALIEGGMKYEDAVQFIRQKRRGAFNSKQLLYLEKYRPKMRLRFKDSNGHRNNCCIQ

[1] = FDA-approved drug screen, activity compared to DMSO
[2] = FDA-approved drug screen, compared to DMSO

Molecule	% Phosphatase Activity (compared to DMSO) PRL-2 (recombinant PRL-2; [2]) [%]	% Phosphatase Activity (compared to DMSO) PRL-3 (recombinant PRL-3; [2]) [%]	% Phosphatase Activity (compared to DMSO) PRL-1 (recombinant PRL-1; [2]) [%]	further results
Nc1ccc(C(=O)NCC(=O)[O-])cc1.O.[Na+] [Sodium 4-aminohippurate Hydrate]				% Phosphatase Activity (compared to DMSO) PRL-2 (recombinant PRL-2; [1]): 87%; % Phosphatase Activity (compared to DMSO) PRL-3 (recombinant PRL-3; [1]): 84%; % Phosphatase Activity (compared to DMSO) PRL-1 (recombinant PRL-1; [1]): 84%
NC(=O)CN1CC(O)CC1=O (stereo not drawn) [Oxiracetam]	122	71	94	
C[C@H](CCC(=O)O)[C@H]1CC[C@H]2[C@@H]3[C@@H](O)C[C@@H]4C[C@H](O)CC[C@]4(C)[C@H]3CC[C@]12C [Ursodiol]				% Phosphatase Activity (compared to DMSO) PRL-2 (recombinant PRL-2; [1]): 79%; % Phosphatase Activity (compared to DMSO) PRL-3 (recombinant PRL-3; [1]): 77%; % Phosphatase Activity (compared to DMSO) PRL-1 (recombinant PRL-1; [1]): 96%
CC(C)OC(=O)[C@H](C)N[P@](=O)(CO[C@H](C)Cn1cnc2c(N)ncnc21)Oc1ccccc1 [Tenofovir Alafenamide (GS-7340)]				% Phosphatase Activity (compared to DMSO) PRL-2 (recombinant PRL-2): 74%; % Phosphatase Activity (compared to DMSO) PRL-3 (recombinant PRL-3): 91%; % Phosphatase Activity (compared to DMSO) PRL-1 (recombinant PRL-1): 94%
CC1=NN(c2ccc(C)c(C)c2)C(=O)/C1=N\Nc1cccc(-c2cccc(C(=O)O)c2)c1O [Eltromobag Olamine, reference compound]				IC50 (recombinant PRL-2; […] protein, DiFMUP at KM, read-out: Calculated IC50, PRL-2 phosphatase activity): 166 ± 22 µM; IC50 (recombinant PRL-3; […] protein, DiFMUP at KM, read-out: Calculated IC50, PRL-3 phosphatase activity): 27 ± 4 µM; IC50 (recombinant PRL-1; […] protein, DiFMUP at KM, read-out: Calculated IC50, PRL-1 phosphatase activity): 61 ± 15 µM
COC(=O)C1=C(C)NC(C)=C(C(=O)OCCN2CCN(C(c3ccccc3)c3ccccc3)CC2)C1c1cccc([N+](=O)[O-])c1.Cl.Cl (stereo not drawn) [Manidipine 2HCl]	87	82	97	
CC(NCCc1ccc(O)cc1)C(O)c1ccc(O)cc1 (stereo not drawn) [Ritodrine HCl]	98	83	113	
NC(CO)C(=O)NNCc1ccc(O)c(O)c1O (stereo not drawn) [Benserazide HCl]	99	68	103	
CO/N=C(\C(=O)N[C@@H]1C(=O)N2C(C(=O)O)=C(CSC(=O)c3ccco3)CS[C@H]12)c1csc(N)n1.Cl [Ceftiofur HCl]	104	84	107	
C=C1CC[C@H](O)C/C1=C/C=C1\CCC[C@]2(C)[C@@H]([C@H](C)CCCC(C)C)CC[C@@H]12 [Vitamin D3]				% Phosphatase Activity (compared to DMSO) PRL-2 (recombinant PRL-2; [1]): 95%; % Phosphatase Activity (compared to DMSO) PRL-3 (recombinant PRL-3; [1]): 63%; % Phosphatase Activity (compared to DMSO) PRL-1 (recombinant PRL-1; [1]): 85%
COC(=O)N(C)c1c(N)nc(-c2nn(Cc3ccccc3F)c3ncccc23)nc1N [Riociguat (BAY 63-2521)]	82	90	99	
CCCC(CCC)C(=O)[O-].[Na+]				% Phosphatase Activity (compared to DMSO) PRL-2 (recombinant PRL-2; [1]): 75%; % Phosphatase Activity (compared to DMSO) PRL-3 (recombinant PRL-3; [1]): 77%; % Phosphatase Activity (compared to DMSO) PRL-1 (recombinant PRL-1; [1]): 86%
CCOc1nc2cccc(C(=O)O)c2n1Cc1ccc(-c2ccccc2-c2nc(=O)o[nH]2)cc1 [Azilsartan]	130	101	111	
C[C@]12CCC3=C4CCC(=O)C=C4CC[C@H]3[C@@H]1CC[C@@]2(O)CC#N [Dienogest]	78	72	100	
C[C@H](Oc1ccc(S(C)(=O)=O)cc1C(=O)N1CCN(c2ncc(C(F)(F)F)cc2F)CC1)C(F)(F)F [Bitopertin]	73	82	93	
C[N+]1(C)CCC(OC(=O)C(O)(c2ccccc2)C2CCCC2)C1 (stereo not drawn) [Glycopyrrolate]	101	82	108	
CC(O)(CS(=O)(=O)c1ccc(F)cc1)C(=O)Nc1ccc(C#N)c(C(F)(F)F)c1 (stereo not drawn) [Bicalutamide]	108	99	118	
CCCCC(=O)O[C@]1(C(=O)CO)[C@@H](C)C[C@H]2[C@@H]3CCC4=CC(=O)C=C[C@]4(C)[C@@]3(F)[C@@H](O)C[C@@]21C [Betamethasone valerate (Betnovate)]	83	79	97	
NC(=O)C[S+]([O-])C(c1ccccc1)c1ccccc1 (stereo not drawn) [Modafinil]	92	82	91	

Molecule	% Phosphatase Activity (compared to DMSO) PRL-2 (recombinant PRL-2; [2]) [%]	% Phosphatase Activity (compared to DMSO) PRL-3 (recombinant PRL-3; [2]) [%]	% Phosphatase Activity (compared to DMSO) PRL-1 (recombinant PRL-1; [2]) [%]	further results
Isosorbide	89	69	90	
CCCN(CCC)S(=O)(=O)c1ccc(C(=O)O)cc1 [Probenecid]	114	84	110	
CC1(C)[C@H](C(=O)O)N2C(=O)C[C@H]2S1(=O)=O [Sulbactam sodium]				% Phosphatase Activity (compared to DMSO) PRL-2 (recombinant PRL-2; [1]): 112%; % Phosphatase Activity (compared to DMSO) PRL-3 (recombinant PRL-3; [1]): 89%; % Phosphatase Activity (compared to DMSO) PRL-1 (recombinant PRL-1; [1]): 111%
O=S(=O)([O-])CCSSCCS(=O)(=O)[O-].[Na+].[Na+] [Dimesna]	99	79	99	
C[C@@H](CN1CC(=O)NC(=O)C1)N1CC(=O)NC(=O)C1.Cl [Dexrazoxane HCl (ICRF-187, ADR-529)]	92	79	97	
COc1ccc(O)cc1 [Mequinol]	120	85	104	
Cl.Fc1ccc([C@@H]2CCNC[C@H]2COc2ccc3c(c2)OCO3)cc1 [Paroxetine HCl]	128	95	90	
C=CC1=C(C(=O)O)N2C(=O)[C@@H](NC(=O)/C(=N\O)c3csc(N)n3)[C@H]2SC1 [Cefdinir]	110	88	109	
c1ccc2c(CC3=NCCN3)cccc2c1 [Naphazoline HCl]	102	83	100	
C[C@H]1O[C@H](O[C@H]2[C@H](O)[C@@H](O)[C@@H](O[C@H]3[C@H](O)[C@@H](O)C(O)O[C@@H]3CO)O[C@@H]2CO)[C@H](O)[C@@H](O)[C@@H]1N[C@H]1C=C(CO)[C@@H](O)[C@H](O)[C@H]1O (stereo partly drawn) [Acarbose]	102	73	94	
CCCN1CCCC[C@H]1C(=O)Nc1c(C)cccc1C [Ropivacaine HCl]	110	80	100	
CCOC(=O)[N-]c1cn(N2CCOCC2)n[o+]1 [Molsidomine]	110	79	99	
Atosiban Acetate	80	90	86	
O=[N+]([O-])O[C@@H]1CO[C@H]2[C@@H]1OC[C@@H]2O [Isosorbide Mononitrate]	85	81	91	
O=C1c2c(O)ccc(O)c2C(=O)c2c(NCCNCCO)ccc(NCCNCCO)c21 [Mitoxantrone HCl]	76	61	74	
CC(=O)OCC(CCn1cnc2cnc(N)nc21)COC(C)=O [Famciclovir]	115	79	107	
C[C@H]1COc2c(N3CCN(C)CC3)c(F)cc3c(=O)c(C(=O)O)cn1c23 [Levofloxacin]	314	238	264	
C=C1/C(=C\C=C2/CCC[C@]3(C)[C@@H]([C@H](C)CCCC(C)C)CC[C@@H]23)C[C@@H](O)C[C@@H]1O [Alfacalcidol]	82	75	99	
CCCN(CCC)C(=O)C1=Cc2ccc(-c3ccc(C(=O)N4CCCC4)cc3)cc2N=C(N)C1 [Motolimod (VTX-2337)]	90	106	103	
